These results are taken from the SangsterLogP compilation.

The series can be described thus: method code SF-HPLC, from DOI: 10.1021/ac9902291.

Regarding `c1ccc2c(c1)ccc1sc3ccccc3c12`, the logP – broadly, a log measure of how a compound divides between an organic and an aqueous phase – came to 5.19. The same measure for `c1ccc2cc3sccc3cc2c1`: 4.5; for `c1ccc2c(c1)ccc1sccc12`: 4.41.

For the compound `Cc1cccc2sccc12`, the logP amounted to 3.57. Take `O=S1(=O)C=Cc2ccccc21`: the logP is 1.01.

For `c1ccc2c(c1)ccc1c3ccsc3ccc21`, the logP was found to be 5.35. The same measure for `c1ccc2c(c1)sc1ccccc12`: 4.36; for `c1ccc2c(c1)ccc1ccsc12`: 4.55. The figure for `c1cc2ccc3cccc4sc(c1)c2c34` is 4.95; for `Cc1cc2ccccc2s1` it is 3.71. `Cc1cccc2ccsc12`: the logP was 3.85. This logP and that of the compound before are within 0.2 log units of each other.
